From ChEMBL document CHEMBL5357018, “Discovery of Malarial Threonyl tRNA Synthetase Inhibitors by Screening of a Focused Fragment Library” (ACS Med Chem Lett, 2024)

target: T1, threonine--tRNA ligase (Plasmodium falciparum, UniProt Q8IIA4); experiment: Inhibition of Plasmodium falciparum Threonyl tRNA synthetase
T1 sequence (Q8IIA4 whole entry): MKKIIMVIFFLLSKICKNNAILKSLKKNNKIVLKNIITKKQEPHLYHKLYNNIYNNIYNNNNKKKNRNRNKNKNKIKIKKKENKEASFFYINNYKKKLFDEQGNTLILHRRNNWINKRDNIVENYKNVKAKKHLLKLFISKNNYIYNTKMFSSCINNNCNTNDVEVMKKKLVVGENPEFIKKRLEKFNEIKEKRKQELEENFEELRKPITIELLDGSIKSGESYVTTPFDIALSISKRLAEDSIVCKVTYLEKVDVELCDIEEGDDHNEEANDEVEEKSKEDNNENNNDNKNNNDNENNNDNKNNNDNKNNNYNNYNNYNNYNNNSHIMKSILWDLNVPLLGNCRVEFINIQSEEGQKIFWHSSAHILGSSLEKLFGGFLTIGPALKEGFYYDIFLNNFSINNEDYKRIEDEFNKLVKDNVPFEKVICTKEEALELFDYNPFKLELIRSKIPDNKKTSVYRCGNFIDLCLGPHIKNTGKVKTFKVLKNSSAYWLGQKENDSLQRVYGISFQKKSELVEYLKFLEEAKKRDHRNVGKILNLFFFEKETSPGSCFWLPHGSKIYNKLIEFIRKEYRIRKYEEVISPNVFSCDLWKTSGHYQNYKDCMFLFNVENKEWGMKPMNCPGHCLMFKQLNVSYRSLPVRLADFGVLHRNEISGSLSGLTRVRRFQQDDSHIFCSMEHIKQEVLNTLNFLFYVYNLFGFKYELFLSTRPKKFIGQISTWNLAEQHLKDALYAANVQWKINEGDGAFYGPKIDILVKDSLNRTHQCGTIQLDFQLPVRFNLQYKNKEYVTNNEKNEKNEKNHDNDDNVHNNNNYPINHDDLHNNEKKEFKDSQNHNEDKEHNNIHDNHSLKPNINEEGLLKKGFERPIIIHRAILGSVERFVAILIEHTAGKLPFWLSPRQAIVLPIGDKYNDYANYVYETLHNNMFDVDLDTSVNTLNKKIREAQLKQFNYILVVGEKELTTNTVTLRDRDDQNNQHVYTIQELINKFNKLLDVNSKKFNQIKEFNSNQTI

| SMILES | IC50 |
| --- | --- |
| C[C@@H]1C[C@H](C)C[C@H](C)[C@@H](O)CC(=O)O[C@H]([C@@H]2CCC[C@H]2C(=O)O)C/C=C/C=C(/C#N)[C@H](O)[C@@H](C)C1 [BORRELIDIN] | 43 nM |
| C[C@@H](O)[C@H](N)C(=O)NS(=O)(=O)/C=C/c1ccccc1 | 33000 nM |
| C[C@@H](O)[C@H](N)C(=O)NS(=O)(=O)OC[C@H]1O[C@@H](n2cnc3c(N)ncnc32)[C@H](O)[C@@H]1O | 160 nM |
| C[C@@H](O)[C@H](N)C(=O)NS(=O)(=O)/C=C/c1cccc(-c2cc(N)ncn2)c1 | 57 nM |
| C[C@@H](O)[C@H](N)C(=O)NP(=O)(O)OC[C@@H]1C[C@H](O)[C@H](n2cnc3c(N)ncnc32)O1 | 440 nM |

target: T1, threonine--tRNA ligase

| SMILES | Ki |
| --- | --- |
| C[C@@H]1C[C@H](C)C[C@H](C)[C@@H](O)CC(=O)O[C@H]([C@@H]2CCC[C@H]2C(=O)O)C/C=C/C=C(/C#N)[C@H](O)[C@@H](C)C1 [BORRELIDIN] | 160 nM |

target: T1, threonine--tRNA ligase; remark: another data set of the same source
Description: Inhibition of 6xHis-tag recombinant Plasmodium falciparum threonyl tRNA synthetase expressed in Escherichia using L-threonine and total tRNA by luminescence based assay

| SMILES | IC50 |
| --- | --- |
| C[C@@H](O)[C@H](N)C(=O)NS(=O)(=O)Oc1cccc2nn(-c3cc(N)ncn3)cc12 | 700 nM |
| C[C@@H](O)[C@H](N)C(=O)NS(=O)(=O)Oc1cccc2cccnc12 | 55000 nM |
| C[C@@H](O)[C@H](N)C(=O)NS(=O)(=O)c1nc2ccccc2s1 | 71000 nM |
| C[C@@H](O)[C@H](N)C(=O)NS(=O)(=O)c1nc2cc(-c3cc(N)ncn3)ccc2s1 | 100 nM |
| C[C@@H](O)[C@H](N)C(=O)NS(=O)(=O)Oc1ccc(-c2cc(N)ncn2)cc1 | 800 nM |
| C[C@@H](O)[C@H](N)C(=O)NS(=O)(=O)Oc1cccc2ccccc12 | 36000 nM |
| C[C@@H](O)[C@H](N)C(=O)NS(=O)(=O)Oc1ccccc1 | 51000 nM |
| C[C@@H](O)[C@H](N)C(=O)NS(=O)(=O)Oc1ccc2ccccc2c1 | 30000 nM |
